The results in this text go back to paper PMC10681007, “Targeted Degradation of XIAP is Sufficient and Specific to Induce Apoptosis in MYCN-overexpressing High-risk Neuroblastoma” (Cancer Research Communications, 2023).

Structures are written as SMILES. Read-outs that look alike come from different tables or passages of the source. Starred links: 1 amine or outer side, 2 acyl side, 3 side chain; linkers in the order of their positions; H or OH if unused. Positions of bridges follow the written chain, without caps; N, C: chain ends. Non-standard residues stand in square brackets, D forms with d. Residues, ends and D or L forms follow the SMILES beside them. Chains are numbered I, II in the order given. Hexamethylenediamine = C(CCCN[*:2])CCN[*:1]; Dip = N[C@H](C(=O)O)C(c1ccccc1)c1ccccc1; Chg = N[C@H](C(=O)O)C1CCCCC1; NMeA = CN[C@@H](C)C(=O)O

One series has as its system IMR-32. Kind of series: RealTime-Glo MT cell viability assay. The class given is cell-based, Human. On the procedure:
(§1) Cell viability was measured in real time using RealTime-Glo MT Cell Viability Assay as according to manufacturer's instructions from Promega. Cells were seeded at 1 × 10^4 cells per well and treated with a range of doses of indicated antagonists, followed by continuous bioluminescence reading every 24 hours for 3 days using luminescent plate reader, Varioskan (SkanIT software). IC50 was determined using GraphPad Prism software.
(§2) To determine their efficacy in neuroblastoma, a panel of neuroblastoma cell lines including neuroblastoma patient-derived cell lines and noncancerous normal tissue-derived cell lines were treated with increasing doses of each antagonist (0–100 µmol/L), followed by real-time measurement of cell viability every 24 for 72 hours.

The next series relates to HS5 (bone marrow origin). Kind of series: RealTime-Glo MT cell viability assay, noncancerous normal cells. The class given is cell-based, Human. The procedure:
as §1, §2
(§3) To evaluate this, noncancerous normal tissue-derived cell lines THLE3 and HS5 were utilized to evaluate toxicity and tolerability.

The next series relates to THLE3 (liver origin). Described as above. The class given is cell-based, Human. On the procedure:
as §1, §2, §3

Series [1] has as its system neuroblastoma cells across the panel of cell lines. Kind of series: Cell viability, IC50 range across the panel. In kind it is cell-based, Human. Conditions: range over cell lines, doses 0–100 µmol/L, viability every 24 for 72 hours; read-out: IC50 against neuroblastoma cells across the panel of cell lines. On the procedure: as §1, with “([…]” for “(SkanIT”, “software. To determine their efficacy in neuroblastoma, a panel of neuroblastoma cell lines including neuroblastoma patient-derived cell lines and noncancerous normal tissue-derived cell lines were treated with increasing doses of each antagonist (0-100 μmol/L), followed by real-time measurement of cell viability every 24 for 72 hours. […] Supplementary Table S2; Fig. 2A). […] Fig. 2A).” for “software.”

The next series concerns the target T1, endogenous XIAP (Homo sapiens, UniProt P98170).
T1 construct: knock-in a bioluminescent tag at endogenous loci of XIAP; endogenous in cells; host or cells: BE(2)-C and KELLY cells, CRISPR/Cas9 HiBiT knock-in, stably transfected with LgBiT vector (Promega)
Kind of series: Degradation of endogenous luciferase-tagged XIAP (HiBiT/LgBiT), real-time luminescence. In kind it is cell-based. Conditions: for DC50: 8 hours, read-out: DC50, degradation curve at 8h. On the technique in general: HiBiT is a short tag that completes a luciferase, so light tracks the accessible tagged protein.

Another series deals with XIAP and c-IAP1. Kind of series: Immunoblot analysis of XIAP and c-IAP1 expression. In kind it is cell-based, Human. The following applies: 10 µmol/L. From the text:
FIGURE 2 Specific loss of XIAP expression, not c-IAP1, is required for mediating apoptosis in high-risk neuroblastoma cells. A, Summary of IAP antagonists’ efficacy in killing neuroblastoma cells. The IAP antagonists were ranked on the basis of the average potency of killing (IC50) and specificity of killing toward only neuroblastoma cells: (i) A4, (ii) B3, (iii) BV6, (iv) LCL161, (v) CUDC-427, (vi) Debio 1143. B, Immunoblot analysis of c-IAP1, XIAP, PARP, and cleaved caspase-3 expression in neuroblastoma cell lines, BE(2)-C and KELLY, and noncancerous normal tissue cell line, HS5, after treatment with 10 µmol/L of either A4, B3, or BV6 at indicated timings (three independent replicates). C, Graphical representation showing the fold change of caspase-3/7 activity relative to vehicle controls after treatment with 10 µmol/L of either A4, B3, or BV6 at indicated timings (data were expressed as mean ± SD of three independent experiments conducted in duplicates; *, P < 0.05). D, Morphology of cells 48 hours posttreatment with 10 µmol/L of either A4, B3, or BV6. […]
Whole cell lysates harvested were lysed in EBC buffer (pH 8.0 of 50 mM Tris, 0.5% NP-40, 120 mM sodium chloride) containing protease inhibitors and protein concentration were quantified using the Bradford assay (Thermo Fisher Scientific). […]
(Immunoblotting shows a protein as a band on a membrane.)

For another series, the system named is BE(2)-C and KELLY cells. Kind of series: Apoptosis (cleaved PARP/caspase-3, Caspase-Glo 3/7). The class given is cell-based, Human. Conditions: 10 µmol/L. The procedure:
(§4) The determination of caspase-3/7 levels as an indication for apoptosis activity was performed using a Caspase-Glo 3/7 assay kit from Promega according to manufacturer's instructions. Cells were seeded at 1 × 10^4 cells per well and treated with 10 µmol/L of IAP antagonists for various indicated timings, followed by bioluminescence measurement using luminescent plate reader, Tecan Infinite200 Pro. The activity of apoptosis was also measured by flow cytometry using the Dead Cell Apoptosis Kit with Annexin V FITC and PI (Thermo Fisher Scientific) according to manufacturer's instructions. Cells harvested from lentiviral infection were subjected to Annexin V (2.5 µL) and PI (40 ng/mL, 0.5 µL) staining, followed by flow cytometric analysis using BD LSRFortessa cell analyzer with excitation/emission spectra of 494 nm/518 nm for FITC and 535 nm/617 nm for PI.
(§5) FIGURE 2 Specific loss of XIAP expression, not c-IAP1, is required for mediating apoptosis in high-risk neuroblastoma cells. A, Summary of IAP antagonists’ efficacy in killing neuroblastoma cells. […] C, Graphical representation showing the fold change of caspase-3/7 activity relative to vehicle controls after treatment with 10 µmol/L of either A4, B3, or BV6 at indicated timings (data were expressed as mean ± SD of three independent experiments conducted in duplicates; *, P < 0.05). […]

The test system of another series is HS5 cells. The series is described as above. The class given is cell-based. Conditions: 10 µmol/L. On the procedure: as §4, §5

T1 sequence (P98170 whole entry): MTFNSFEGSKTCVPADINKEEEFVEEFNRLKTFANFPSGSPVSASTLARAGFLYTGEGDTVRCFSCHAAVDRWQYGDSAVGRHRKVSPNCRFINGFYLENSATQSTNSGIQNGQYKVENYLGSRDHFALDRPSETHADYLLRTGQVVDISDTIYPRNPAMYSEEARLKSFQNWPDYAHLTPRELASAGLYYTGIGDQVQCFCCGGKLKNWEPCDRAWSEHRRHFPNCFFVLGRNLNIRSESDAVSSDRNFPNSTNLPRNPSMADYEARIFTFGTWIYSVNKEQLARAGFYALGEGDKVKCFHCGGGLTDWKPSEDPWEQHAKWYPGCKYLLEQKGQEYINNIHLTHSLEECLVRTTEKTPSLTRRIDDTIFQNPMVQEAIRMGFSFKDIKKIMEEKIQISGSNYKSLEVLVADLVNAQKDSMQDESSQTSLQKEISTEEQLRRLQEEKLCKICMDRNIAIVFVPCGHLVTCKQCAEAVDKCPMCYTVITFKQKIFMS
Description for endogenous XIAP: B, Degradation profiles of endogenous XIAP in response to A4 or BV6 treatment of neuroblastoma cells, BE(2)-C (top) and KELLY (bottom). Cells were treated with increasing dose of A4 or BV6 and luminescence was measured continuously in real time for 2 hours. Luminescence values were normalized to DMSO vehicle control and degradation profiles were generated using GraphPad Prism. Values were expressed as mean ± SD of three independent experiments conducted in duplicates.
(A) Degradation profiles of endogenous XIAP in response to A4 treatment of neuroblastoma cells, BE(2)-C and KELLY. (B) Degradation profiles of endogenous XIAP in response to BV6 treatment of neuroblastoma cells, BE(2)-C and KELLY. […] Cells were treated with increasing dose of A4 or BV6 and luminescence was measured continuously in real-time for 2 hours (A4) or 8 hours (BV6), respectively. Luminescence values were normalized to DMSO vehicle control and degradation profiles were generated using GraphPad Prism. Values were expressed as mean ± SD of three independent experiments.

For orientation: IC50 means the concentration at which inhibition is half-maximal. A word on the DC50: it is the concentration giving 50% degradation. For the molecule `CN[C@@H](C)C(=O)N[C@H](C(=O)N1CCC[C@H]1C(=O)N[C@H](C(=O)NCCCCCCNC(=O)[C@@H](NC(=O)[C@@H]1CCCN1C(=O)[C@@H](NC(=O)[C@H](C)NC)C1CCCCC1)C(c1ccccc1)c1ccccc1)C(c1ccccc1)c1ccccc1)C1CCCCC1` [BV6] (I: H-[NMeA][Chg]P[Dip] / II: H-[NMeA][Chg]P[Dip]; linker I:C-II:C via Hexamethylenediamine), the IC50 in the series with IMR-32 (IMR-32, 24 hours) amounted to 7.4 µM; in the series with IMR-32 (IMR-32, 48 hours), 5.8 µM; with IMR-32 (IMR-32, 72 hours) it was 4.3 µM; with HS5 (bone marrow origin) (HS5, 24 hours) it was 6.1 µM; with HS5 (bone marrow origin) (HS5, 48 hours) it was 4.4 µM; with HS5 (bone marrow origin) (HS5, 72 hours), 3.6 µM. Moreover, the IC50 in the series with THLE3 (liver origin) (THLE3, 24 hours) is 11.3 µM; with THLE3 (liver origin) (THLE3, 48 hours) it was 6.8 µM; in the series on THLE3 (liver origin) (THLE3, 72 hours) it was 5.2 µM; in series [1], 3 to 20 µM. The “degradation of XIAP” value at endogenous XIAP (2 hours' exposure, BE(2)-C and KELLY) is reported as “minimal degradation of XIAP”. Further, the DC50 was 44.5 µM at endogenous XIAP (BE(2)-C) and 32 µM on endogenous XIAP (KELLY). In addition, the “XIAP and c-IAP1 expression (immunoblot)” value in the series with XIAP and c-IAP1 (BE(2)-C and KELLY cells) was “loss of c-IAP1 expression with no change in XIAP expression”; in the series with XIAP and c-IAP1 (HS5 cells), “loss of c-IAP1 expression with no changes in XIAP expression”. Moreover, in the series on BE(2)-C and KELLY cells, the “apoptosis (PARP and caspase-3 cleavage, caspase-3/7 activity)” value is listed as “minimal or no apoptosis”. The apoptosis result with HS5 cells was “significant apoptosis”.
